In patent US20250281621A1, “GPC3 APTAMERS AND VARIANTS AND USE THEREOF” (Guardian Therapeutics, LLC, priority 2020, published 2025):
Where a name gives a salt, the structure may show the parent alone. Read-outs that look alike come from different tables or passages of the source.

Experiments:
GPC3 [1] = molecular target: T1, GPC3 (Homo sapiens, UniProt P51654); assay: GPC3 binding via flow cytometry using GPC3+ HEK293 cells; parameters: expressed in transfected cells; host or cells: engineered HEK293 cells overexpressing GPC3; conditions: for Kd: flow cytometry using GPC3+ HEK293 cells; for GPC3 binding activity (MFI): GPC3^+ HEK293 cells
Method: (§1) Two independent SELEX selections were carried to select clones that specifically bind to GPC3. Seven to nine rounds of nitrocellullose filter SELEX (Jhaveri et al., In vitro selection of RNA aptamers to a protein target by filter immobilization. Curr Protoc Nucleic Acid Chem. 2001, Chapter 9: Unit 9.3. doi: 10.1002/0471142700.nc0903s00. PMID: 18428881) were preformed using recombinant GPC3 protein. DNA clones from the final rounds of SELEX were sent for next generation sequencing and the data were analyzed for abundance. The highest abundant sequences (clones) were made via chemical synthesis and used in screening. The clones were screened for GPC3 binding via flow cytometry using engineered HEK293 cells overexpressing GPC3 (GPC3+ HEK293).
Additional variants surrounding the core motif were made in which stem 2 (as depicted in FIG. 1) is extended by 1 or 2 additional base pairs (GRX1187 and GRX2101 respectively) or replaced with an alternative stem and loop sequence (GRX958). Additionally, a construct was designed in which stem 2 is closed with a 4 base loop and stem 1 is open creating a new 5′ and 3′ end, GRX2102. […] (Table 7)

GPC3^− HEK293 cells = assay: Flow cytometry binding control with GPC3− HEK293 cells
Method: as §1
(§2) Binding of aptamer variants to GPC3 was tested with melting curve analysis (thermofluorimetric analysis). The control of experiment was carried out similarly with GPC3^− HEK293 cells.

[2] = Melting curve analysis (thermofluorimetric analysis); type: physicochemical; conditions: compared to original clone F14, #Min4 and #Min5
Method: as §2

GPC3 [3] = molecular target: T1, GPC3; assay: Binding kinetics of top minimers (Ka, Kd, KD)
Text: (§3) The best minimer, GRX46, as well as combinations of variants with top activities were selected for further evaluation (Table 6).

[4] = molecular target: T2, endogenously expressed GPC3 (Homo sapiens, UniProt P51654); assay: Binding to cancer cells endogenously expressing GPC3 (Hep3B, HepG2, NCI-H446, Huh7); conditions: data not shown; for need of refolding for maximal activity: binding to Hep3B cells
T2 construct: endogenously expressed GPC3 on different cancer cells; endogenous in cells; host or cells: Hep3B, HepG2, NCI-H446, Huh7
Text: Human hepatocellular Carcinoma cells HepG2 and Hep 3B overexpressing GPC3 were used to test the affinity of the selected positive clones. The binding studies indicate that several selected aptamer candidates (Table 3) from both libraries can bind human hepatocellular Carcinoma cells with high affinity.
A pool of partial randomization sequences from GRX8 was created and selected by cell-SELEX using GPC3^+ HEK293 cells. Those variants comprise various changes to the structural elements of GRX8, including changes to the external loop, stack, helix, hairpin loop and stem, etc. The clones were further screened with Hep3B cells and minimized based on original structure. The minimer #Min9 was further randomly mutagenized for sequence changes that can improve the binding affinity to GPC3. Another minimer variant (ID No.: GRX46)
with increased activity was further tested.

Hep3B xenograft [5] = test system: Hep3B xenograft
GPC3 [6] = molecular target: T1, GPC3; assay: Binding activity of minimers incl. refolding and freeze/thaw tests
Text: When the lineal GRX8 sequence is refolded, the binding activity of GRX8 improves.
as §3

Hep3B xenograft [7] = assay: GRX26 in Hep3B xenograft mouse model; conditions: 28 Days; for Relative tumor volume growth (Day 28): vehicle = 1.00
Method: (SEQ ID NO.: 32) (ID NO. #GRX26). GRX26 was tested in Hep3B xenograft mouse model for its activity in vivo (Table 8).

Hep3B xenograft [8] = test system: Hep3B xenograft; remark: listed apart in the source
Hep3B xenograft [9] = conditions: 30 mg/kg, oral, QD 28 days
Glypican-3 (GPC3) [10] = molecular target: T3, Glypican-3 (GPC3) (UniProt P51654;P51654 P51654:25-358,P51654:359-554); assay: assay and GPC3 source not stated; fusion does not affect GPC3 binding; conditions: tags: recombinant GPC3 used for SELEX; source inferred for kinetic assay
Glypican-3 (GPC3) [11] = molecular target: T3, Glypican-3 (GPC3); assay: flow; GPC3+ HEK293 cells; conditions: tags: overexpressed in engineered HEK293 cells (GPC3+ HEK293)
[12] = 5 mg/kg, IP, QD/7Days, vehicle = 1.00

With “CGUCAUCGGGUUGCUACCCAAGGCCCAGGAGGGCGAUGACG (listed as RNA, chemistry not given here) [GRX1187, 77]” the Kd (GPC3 [1]) was 64.2 nM.

For “AAGCATTACCGGGTTGCTACCCAAGGACAAGAGTCGATGATGCTT (listed as DNA, chemistry not fully specified) [Min2, 27]”, the “GPC3 binding activity (MFI)” value (GPC3^− HEK293 cells) was 720, the “binding activity to GPC3^+ HEK293 cells compared to full sequence of clone F14” value (GPC3 [1]) was “significantly increased” and the “GPC3 binding activity (MFI)” value (GPC3 [1]) was 16652.

In the case of “CGTCATCGGGTTGCTACCCAAGGACAAGAGTCGATGACG (listed as DNA, chemistry not fully specified) [Min9, 32]”, the thermal stability [2] is reported as “thermally more stable”.

For “CGUCAUCGGGUUGCUACCCAAGGCCAGGAGGCGAUGACG (listed as RNA, chemistry not fully specified) [GRX49, 25]”, the Ka (GPC3 [3]) was 199000 M⁻¹ s⁻¹, the “binding to endogenously expressed GPC3 on cancer cells” value ([4]; Hep3B, HepG2, NCI-H446, Huh7) was “selectively bind” and the “need of refolding for maximal activity” value [4] was “do not require refolding for maximal activity”. For the same molecule, the Kd (GPC3 [1]) was 9 nM.

In the case of Keytruda: the PD-1R inhibitor Keytruda, the “% of body weight loss” value (Hep3B xenograft [5]; 10 mg/kg) is reported as 3.66%, the “reduction of tumor size” value (Hep3B xenograft [5]; 10 mg/kg once every 3 days i.p., 11 days) is reported as 18% and the “Relative tumor volume growth (Day 11)” value (Hep3B xenograft [5]; 10 mg/kg, vehicle = 1.00) is reported as 0.82.

In the case of “CATTATCGGGTTGCTACCCGAGGACAAGAGTCGATGATG (listed as DNA, chemistry not fully specified) [Min6, 31]”, the “GPC3 binding activity (MFI)” value (GPC3^− HEK293 cells) is reported as 507 and the “GPC3 binding activity (MFI)” value (GPC3 [1]) is reported as 3619.

With “CGTCGTCGGGTTGCTACCCAAGGACAAGAGTCGACGACG (listed as DNA, chemistry not fully specified) [Min9.2, 33]” the thermal stability [2] was “thermally more stable”.

For “CGUCAUCGGGUUGCUACCCAAGGUCAAGAGACGAUGACG (listed as RNA, chemistry not fully specified) [GRX46]”, the Ka (GPC3 [3]) was 55400 M⁻¹ s⁻¹ and the “binding activity and refolding behavior relative to GRX8” value (GPC3 [6]; data not shown) was “similar, enhanced binding activity”.

With “AAGCCATTACCGGGTTGCTACCCGAGGACAAGAGTCGATGATGCTT (listed as DNA, chemistry not fully specified) [Min3, 28]” the “GPC3 binding activity (MFI)” value (GPC3^− HEK293 cells) was 444 and the “GPC3 binding activity (MFI)” value (GPC3 [1]) was 377.

In the case of “DM1-CGTCATCGGGTTGCTACCCAAGGACAAGAGTCGATGACG [GRX26]”, the “% of body weight loss” value (Hep3B xenograft [7]; 2.5 mg/kg) is reported as 10.67%, the “Relative tumor volume growth (Day 28)” value (Hep3B xenograft [7]; 2.5 mg/kg) is reported as 0.69 and the “% of body weight loss” value (Hep3B xenograft [7]; 10 mg/kg, IP/QD) is reported as 14.86%. For the same molecule, the “Relative tumor volume growth (Day 28)” value (Hep3B xenograft [7]; 10 mg/kg, IP/QD) was 0.46.

In the case of “CGUCAUCGGGUUGCUACCCAAGGUCAGGAGACGAUGACG (listed as RNA, chemistry not given here) [GRX8 with triple]”, the Ka (GPC3 [3]) is reported as 112000 M⁻¹ s⁻¹ and the “need of refolding for maximal activity” value [4] is reported as “do not require refolding for maximal activity”.

In the case of “AAGCCATTACCGGGTTGCTACCCAAGGACAAGAGTCGATGATGCTT (listed as DNA, chemistry not fully specified) [Min1, 26]”, the “GPC3 binding activity (MFI)” value (GPC3^− HEK293 cells) is reported as 579, the “binding activity to GPC3^+ HEK293 cells compared to full sequence of clone F14” value (GPC3 [1]) is reported as “significantly increased” and the “GPC3 binding activity (MFI)” value (GPC3 [1]) is reported as 11403.

With “AAGCCATTATCGGGTTGCTACCCAAGGACAAGAGTCGATGATGCTT (listed as DNA, chemistry not fully specified) [Min4, 29]” the “GPC3 binding activity (MFI)” value (GPC3^− HEK293 cells) was 1072, the “binding activity to GPC3^+ HEK293 cells compared to full sequence of clone F14” value (GPC3 [1]) was “significantly increased” and the “GPC3 binding activity (MFI)” value (GPC3 [1]) was 23261.

For TCGTCGTTTTGTCGTTTTGTCGTT [CpG], the “Relative tumor volume growth (Day 7)” value (Hep3B xenograft [8]; [12]) was 0.57, the “Relative tumor volume growth (Day 18)” value (Hep3B xenograft [8]; [12]) was 0.47 and the “final immune: tumor cell ratio relative to the vehicle control” value (Hep3B xenograft [8]; 7-day on/7-day off daily dosing schedule) was 1.51±0.95.

Molecule “CGUCAUCGGGUUGCUACCCAAGGCACCAGGAGGUGCGAUGACG (listed as RNA, chemistry not given here) [GRX2101, 78]” has a Kd (GPC3 [1]) of 29.3 nM.

In the case of “CGUCAUCGGGUUGCUACCCAAGGUCAGGUGACGAUGACG (listed as RNA, chemistry not given here) [GRX8 with QUAD6]”, the Ka (GPC3 [3]) is reported as 201000 M⁻¹ s⁻¹ and the “need of refolding for maximal activity” value [4] is reported as “do not require refolding for maximal activity”.

With “CGGGAGUCCUAGGAAGGACGGGUUGCUACCCAAGUCCCG (listed as RNA, chemistry not fully specified) [GRX2102, 79]” the Kd (GPC3 [1]) was 26.9 nM.

With `CNC(=O)c1cc(Oc2ccc(NC(=O)Nc3ccc(Cl)c(C(F)(F)F)c3)cc2)ccn1` [Sorafenib Tosylate] the “% of body weight loss (Day 28)” value (Hep3B xenograft [9]) was 9.33%.

“GACUAGAUCGGGUUGCUACCCAAGCUCCGGUUCAGAUCGAUGGAGGAUCUAGUC (listed as RNA, chemistry not fully specified) [GRX958, 76]” gave a Kd (GPC3 [1]) of 33.1 nM.

For “CGUCAUCGGGUUGCUACCCAAGGACAAGAGUCGAUGACG (RNA aptamer, any chemical modification not given here, further chemistry not given here) [GRX8]”, the Ka (GPC3 [3]) was 61900 M⁻¹ s⁻¹, the “binding activity when the lineal sequence is refolded” value (GPC3 [6]) was “improves” and the “binding affinity to exogenously expressed GPC3” value (GPC3 [6]; FIG. 2) was “high binding affinity”. The “stability of activity in freeze/thaw tests” value (GPC3 [6]; frequent freeze/thaw) was “stable and not affected by the frequent freeze/thaw tests”.

For “CATTATCGGGTTGCTACCCAAGGACAAGAGTCGATGATG (listed as DNA, chemistry not fully specified) [Min5, 30]”, the “GPC3 binding activity (MFI)” value (GPC3^− HEK293 cells) was 946, the “binding activity to GPC3^+ HEK293 cells compared to full sequence of clone F14” value (GPC3 [1]) was “significantly increased” and the “GPC3 binding activity (MFI)” value (GPC3 [1]) was 19484.

In the case of “GGCATCGGGTTGCTACCCAAGGACAAGAGTCGATGCC (listed as DNA, chemistry not fully specified) [Min11, 34]”, the thermal stability [2] is reported as “thermally more stable”.

B1: GRX51 (CpG7909-GRX49 fusion) (mixed)
mixed: TCGTCGTTTTGTCGTTTTGTCGTTCGUCAUCGGGUUGCUACCCAAGGCCAGGAGGCGAUGACG
modifications: PS DNA CpG7909 portion, 2'-OMe aptamer portion
Molecule B1 has an IC50 (Glypican-3 (GPC3) [10]) of 32.7 nM.

B2: GGGAGACAAGAATAAAGCGAGTTTGAAGCCATTACCGGGTTGCTACCCAAGGACAAGAGTCGATGATGCTTAGCTAG (nucleic acid)
chain: GGGAGACAAGAATAAAGCGAGTTTGAAGCCATTACCGGGTTGCTACCCAAGGACAAGAGTCGATGATGCTTAGCTAG
modifications: listed as DNA, chemistry not fully specified
notes: 12
For B2, the “GPC3 binding activity (MFI)” value (GPC3^− HEK293 cells) was 1040 and the “GPC3 binding activity (MFI)” value (GPC3 [1]) was 5050.

B3: GRX958 (ssRNA)
RNA: GACUAGAUCGGGUUGCUACCCAAGCUCCGGUUCAGAUCGAUGGAGGAUCUAGUC
modifications: fully 2'-OMe
With B3 the Kd (Glypican-3 (GPC3) [11]; stem 2 replaced with alternative stem and loop) was 33.1 nM.

B4: GRX2101 (ssRNA)
RNA: CGUCAUCGGGUUGCUACCCAAGGCACCAGGAGGUGCGAUGACG
modifications: fully 2'-OMe
With B4 the Kd (Glypican-3 (GPC3) [11]; stem 2 extended by 2 bp) was 29.3 nM.

B5: GRX1187 (ssRNA)
RNA: CGUCAUCGGGUUGCUACCCAAGGCCCAGGAGGGCGAUGACG
modifications: fully 2'-OMe
For B5, the Kd (Glypican-3 (GPC3) [11]; stem 2 extended by 1 bp) was 64.2 nM.

B6: GRX2102 (ssRNA)
RNA: CGGGAGUCCUAGGAAGGACGGGUUGCUACCCAAGUCCCG
modifications: fully 2'-OMe
Work on B6 yielded a Kd (Glypican-3 (GPC3) [11]; stem 2 closed with 4-base loop, stem 1 open (new 5' and 3' ends)) of 26.9 nM.
